Reference: patent publication US20220340665A1, “INHIBITOR AGAINST EXPRESSION OF IMMUNE CHECKPOINT MOLECULE” (RENASCIENCE INC., priority 2019, published 2022)

Molecular target: human PAI-1 (Homo sapiens, UniProt P05121)
Assay: PAI-1 inhibitory activity, t-PA with Spectrozyme t-PA chromogenic substrate (Reference Experimental Example 2)
Assay type: biochemical
Parameters: purchased Molecular Innovations, Inc. (USA)
Experimental: Subsequently, human-derived tissue plasminogen activator (t-PA) (manufactured by American Diagnostica, Inc. (USA); the same applies hereinafter) adjusted to 0.05 pmol/μL was added thereto, and the mixture was further incubated at 37° C. for 60 minutes. Then, 0.25 mM of Spectrozyme t-PA synthetic substrate (manufactured by American Diagnostica, Inc. (USA); the same applies hereinafter), which is a chromogenic substrate, was added. […]
Free p-nitroaniline removed from the chromogenic substrate (Spectrozyme t-PA) by t-PA action was measured using a spectrophotometer at an absorbance of 405 nm at 20-minute intervals, for 120 minutes.

[1] = Tables 5 to 7, first value column, head prints no concentration
[2] = Tables 5 to 7, second value column, head prints no concentration
[3] = compound 10 μm (head), system without compound after 120 minutes = 100%
[4] = compound 25 μm (head), system without compound after 120 minutes = 100%

human PAI-1, sequence (P05121 24-402): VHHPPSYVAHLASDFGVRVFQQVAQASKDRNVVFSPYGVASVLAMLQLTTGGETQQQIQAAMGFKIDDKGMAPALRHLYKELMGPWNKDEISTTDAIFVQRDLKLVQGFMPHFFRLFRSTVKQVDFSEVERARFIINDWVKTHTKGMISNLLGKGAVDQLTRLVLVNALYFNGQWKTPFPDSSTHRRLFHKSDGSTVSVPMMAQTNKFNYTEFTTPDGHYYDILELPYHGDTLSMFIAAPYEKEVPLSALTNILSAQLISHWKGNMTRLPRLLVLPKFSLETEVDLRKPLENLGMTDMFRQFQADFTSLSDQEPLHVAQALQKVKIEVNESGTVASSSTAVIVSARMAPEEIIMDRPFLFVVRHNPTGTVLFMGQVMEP

Molecule	PAI-1 activity % [1]	PAI-1 activity % [2]	PAI-1 activity % [3]	PAI-1 activity % [4]
2-((biphenyl-4-ylcarbonoyl)amino)-5-chlorobenzoic acid [Example 71]	2.1%	39.6%		
5-chloro-2-((3-(3-(furan-3-yl)phenyl)propenoyl)amino)benzoic acid [Example 36]			3.7%	95.7%
5-chloro-2-(((3-(cyclohex-1-en-1yl)phenyl)acetyl)amino)benzoic acid [Example 25]			0.0%	85.8%
5-chloro-2-(((4-(methylcyclohexyl)phenyl)carbonyl)amino)benzoic acid [Example 98]	0.1%	41.5%		
O=C(Nc1ccc(Cl)cc1C(=O)[O-])c1cccc(-c2ccncc2)c1.[Na+] [Example 8, 5-chloro-2-(((3-(pyridin-4-yl)phenyl)carbonyl)amino)sodium benzoate]			28.5%	100.3%
CC(C)(C)c1cccc(OCC(=O)Nc2ccc(Cl)cc2C(=O)O)c1 [Example 16, 2-(((3-tert-butylphenoxy)acetyl)amino)-5-chlorobenzioc acid]			21.9%	77.4%
CC(C)(C)c1cccc(OCC(=O)Nc2ccc(Cl)cc2C(=O)O)c1 [Example 18, 2-(((3-tert-butylphenoxy)acetyl)amino)-5-chlorobenzoic acid]			16.1%	81.4%
O=C(COc1ccc(C23CC4CC(CC(C4)C2)C3)cc1)Nc1ccc(Cl)cc1C(=O)O [Example 21]			0.3%	10.0%
Cn1c(C(=O)Nc2ccc(Cl)cc2C(=O)O)cc2cc(Br)ccc21 [Example 23]			1.8%	97.3%
O=C(COc1cccc(C23CC4CC(CC(C4)C2)C3)c1)Nc1ccc(Cl)cc1C(=O)O [Example 30]			1.3%	19.3%
O=C(O)c1cc(Cl)ccc1NC(=O)C1CCCN(C(=O)c2cccc(-c3ccccc3)c2)C1 (stereo not drawn) [Example 31, 2-(((1-(biphenyl-3-ylcarbonyl)pipendin-3-yl)carbonyl)amino)-5-chlorobenzoic acid]			20.2%	88.0%
O=C(Nc1ccc(Cl)cc1C(=O)O)c1ccc(C2=CCOCC2)cc1 [Example 32, 5-chloro-2-(((4'-(3,6-dihydro-2H-pyran-4-yl)phenyl)carbonyl)amino)benzoic acid]			1.7%	94.4%
O=C(Nc1ccc(Cl)cc1C(=O)O)c1ccc(C2=CCOCC2)cc1 [Example 34, 5-chloro-2-(((4-(3,6-dihyrdo-2H-pyran-4-yl)phenyl)carbonyl)amino)benzoic acid]			45.1%	97.1%
O=C(O)c1cc(Cl)ccc1NC(=O)C1(c2cccc(-c3ccoc3)c2)CC1 [Example 35, 5-chloro-2-(((1-(3-(furan-3-yl)phenyl)cyclopropyl)carbonyl)amino)benzoic acid]				96.8%
O=C(O)c1cc(Cl)ccc1NC(=O)c1cccc2c1Cc1ccccc1-2 [Example 38, 5-chloro-2-((9H-fluoren-1-ylcarbonyl)amino)benzoic acid]				94.6%
CC(C)(Oc1cccc(-c2ccoc2)c1)C(=O)Nc1ccc(Cl)cc1C(=O)O [Example 44, 5-chloro-2-((2-(3-(furan-3-yl)phenoxy)-2-methylpropenoyl)amino)benzoic acid]			20.4%	97.6%
O=C(COc1ccccc1-c1ccccc1)Nc1ccc(-c2ccoc2)cc1C(=O)O [Example 46, 2-(((biphenyl-2-yloxy)acetyl)amino)-5-(furan-3-yl)benzoic acid]			0.4%	69.9%
O=C(Nc1ccc(Cl)cc1C(=O)O)c1ccc(C(=O)C23CC4CC(CC(C4)C2)C3)cc1 [Example 56]			0.7%	75.8%
O=C(Nc1ccc(Cl)cc1C(=O)O)C(=O)c1c[nH]c2ccc(OCc3ccccc3)cc12 [Example 57, 2-(((5-(benzyloxy)-1H-indol-3-yl)(oxo)acetyl)amino)-5-chlorobenzoic acid]				36.6%
O=C(Nc1ccc(Cl)cc1C(=O)O)c1cccc(-c2cccc3ccccc23)c1 [Example 58, 5-chloro-2-(((3-(naphthalen-1-yl)phenyl)carbonyl)amino)benzoic acid]			0.0%	0.0%

Molecule	PAI-1 activity % [1]	PAI-1 activity % [2]	PAI-1 activity % [3]	PAI-1 activity % [4]
COc1ccccc1-c1cccc(OCC(=O)Nc2ccc(Cl)cc2C(=O)O)c1 [Example 61, 5-chloro-2-((((2'-methoxybiphenyl-3-yl)oxy)acetyl)amino)benzoic acid]			36.9%	
O=C(Nc1ccc(Cl)cc1C(=O)[O-])c1cccc(-c2cnc3ccccc3c2)c1.[Na+] [Example 63, 5-chloro-2-(((3-(quinolin-3-yl)phenyl)carbonyl)amino)sodium benzoate]			0.3%	21.3%
O=C(Nc1ccc(Cl)cc1C(=O)[O-])c1cccc(-c2cncc3ccccc23)c1.[Na+] [Example 64, 5-chloro-2-(((3-(isoquinolin-4-yl)phenyl)carbonyl)amino)sodium benzoate]			0.7%	74.3%
O=C(Nc1ccc(Cl)cc1C(=O)[O-])c1cccc(-c2cccc3ncccc23)c1.[Na+] [Example 65, 5-chloro-2-(((3-(quinolin-50yl)phenyl)carbonyl)amino)sodium benzoate]			0.4%	71.7%
O=C(Nc1ccc(Cl)cc1C(=O)[O-])c1cccc(-c2cccc3cnccc23)c1.[Na+] [Example 66]			0.1%	22.6%
O=C(Nc1ccc(Cl)cc1C(=O)[O-])c1ccc(-c2cccc3cccnc23)cc1.[Na+] [Example 67, 5-chloro-2-(((4-(quinolin-8-yl)phenyl)carbonyl)amino)sodium benzoate]			0.6%	90.4%
Cl.O=C(O)c1cc(Cl)ccc1NC(=O)N1CCN(C(c2ccccc2)c2ccccc2)CC1 [Example 75, 5-chloro-2-(((4-(diphenylmethyl)piperacin-1-yl)carbonyl)amino)benzoic acid hydrochloride]	4.7%	86.4%		
O=C(COC(c1ccccc1)c1ccccc1)Nc1ccc(Cl)cc1C(=O)O [Example 76, 5-chloro-2-(((diphenylmethoxy)acetyl)amino)benzoic acid]	30.5%			
O=C(CN1CCN(C(c2ccccc2)c2ccccc2)CC1)Nc1ccc(Cl)cc1C(=O)O [Example 77, 5-chloro-2-(((4-(diphenylmethyl)piperazin-1-yl)acetyl)amino)benzoic acid]		69.6%		
O=C(Nc1ccc(Cl)cc1C(=O)O)c1cccc(C2=CCCCC2)c1 [Example 79, 5-chloro-2-(((3-(cyclohex-1-en-1yl-)phenyl)carbonyl)amino)benzoic acid]	1.6%	44.5%		
O=C(Nc1ccc(C2=CCCCC2)cc1C(=O)O)c1ccc(C2CCCCC2)cc1 [Example 81, 5-(cyclohex-1-en-1-yl)-2-(((4-cylcohexylphenyl)carbonyl)amino)benzoic acid]	0.0%	1.0%		
Cc1ccc(C23CC4CC(CC(C(=O)Nc5ccc(Cl)cc5C(=O)O)(C4)C2)C3)cc1 [Example 86]	1.4%	63.5%		
O=C(/C=C(/Cl)C1CCCCC1)Nc1ccc(Cl)cc1C(=O)O [Example 91, 5-chloro-2-(((2E)-3-chloro-3-cyclohexlprop-2-encyl)amino)benzoic acid]	16.7%	96.9%		
O=C(Nc1ccc(CCC2CCCCC2)cc1C(=O)O)c1ccc(C2CCCCC2)cc1 [Example 93, 5-(2-cyclohexylethyl)2-(((4-cyclohexylphenyl)carbonyl)amino)beznoic acid]	0.0%	0.0%		
O=C(C=Cc1ccc(C23CC4CC(CC(C4)C2)C3)cc1)Nc1ccc(Cl)cc1C(=O)O [Example 94, 2-((3-(4-(adamantan-1-yl)phenyl)prop-2-enoyl)amino)-5-chlorobenzoic acid]	7.4%	3.5%		
C#Cc1ccc(NC(=O)c2ccc(C3CCCCC3)cc2)c(C(=O)O)c1 [Example 95, 2-(((4-cyclohexylphenyl)carbonyl)amino)-5-ethynlbenzoic acid]	0.3%	80.5%		
O=C(Nc1ccc(Cl)cc1C(=O)[O-])c1cccc(OCc2ccc3ccccc3n2)c1.[Na+] [Example 99, 5-chloro-2-(((3-(quinolin-2-ylmethoxy)phenyl)carbonyl)amino)sodium benzoate]	0.3%	87.8%		
O=C(Nc1ccc(Cl)cc1C(=O)[O-])c1ccc(OCc2ccc3ccccc3n2)cc1.[Na+] [Example 100, 5-chloro-2-(((4-(quinolin-2-ylmethoxy)phenyl)carbonyl)amino)sodium benzoate]	0.7%	92.1%		
O=C(/C=C/c1cccc(-c2cccc3cccnc23)c1)Nc1ccc(Cl)cc1C(=O)[O-].[Na+] [Example 101, 5-chloro-2-(((2E)-3-(3-(quinolin-8-yl)phenyl)prop-2-enoyl)amino)sodium benzoate]	0.2%	24.7%		
